Laboratory results published in PubChem BioAssay (NCI).
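Following 48 hours of exposure in 96-well plates, responses at five concentrations were used to interpolate endpoints linearly. GI50: concentration for 50% inhibition of growth. TGI: total growth inhibition.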

How the values were obtained:
Test in all cases: NCI anticancer screen, dose series, 48 h
HCC-2998 colon = system: HCC-2998 colon
HCT-15 colon = system: HCT-15 colon
T-47D breast = system: T-47D breast
EKVX NSCLC = system: EKVX NSCLC
ACHN renal = system: ACHN renal
HOP-92 NSCLC = system: HOP-92 NSCLC
A498 renal = system: A498 renal
HT29 colon = system: HT29 colon
M14 melanoma = system: M14 melanoma

| SMILES | TGI (HCC-2998 colon) [µM] | TGI (HCT-15 colon) [µM] | TGI (T-47D breast) [µM] | TGI (EKVX NSCLC) [µM] | TGI (ACHN renal) [µM] | TGI (HOP-92 NSCLC) [µM] | TGI (A498 renal) [µM] | TGI (HT29 colon) [µM] | TGI (M14 melanoma) [µM] | GI50 (HCC-2998 colon) [µM] | GI50 (HCT-15 colon) [µM] | GI50 (EKVX NSCLC) [µM] | GI50 (ACHN renal) [µM] | GI50 (A498 renal) [µM] | GI50 (HT29 colon) [µM] | GI50 (M14 melanoma) [µM] |
| --- | --- | --- | --- | --- | --- | --- | --- | --- | --- | --- | --- | --- | --- | --- | --- | --- |
| O=C(CCc1ccccc1)ON1C(=S)C(c2ccccc2)(c2ccccc2)N=C1Sc1ccccc1 | > 100 | > 100 | > 100 | > 100 | > 100 | > 100 | > 100 | > 100 | > 100 | – | – | – | – | – | – | – |
| CCOC(=O)C1=COC(C)(CCc2ccccc2)CC1=O (stereo not given) | – | > 100 | > 100 | > 100 | > 100 | – | > 100 | > 100 | > 100 | – | – | – | – | – | – | – |
| CCN(CC)c1ccc2cc(C(=O)Nc3ccccn3)c(=N)oc2c1 | > 100 | > 100 | > 100 | > 100 | > 100 | > 100 | > 100 | > 100 | > 100 | – | – | – | – | – | – | – |
| CNc1ncc(-c2nnnn2-c2ccccc2)c(CN(C)C)n1 | > 100 | > 100 | > 100 | > 100 | > 100 | > 100 | > 100 | > 100 | > 100 | – | – | – | – | – | – | – |
| CC(=O)[CH-]C(=O)c1ccccc1.CC(=O)[CH-]C(=O)c1ccccc1.C[C@]12CCC(=O)C=C1CC[C@@H]1C2CC[C@@]2(C)C1CC[C@]2(C)[O-].C[C@]12CCC(=O)C=C1CC[C@@H]1C2CC[C@@]2(C)C1CC[C@]2(C)[O-].Cl.[Ti+4] (stereo not given in full) | 41.7 | 52.4 | – | 44.7 | 87.8 | – | 31.1 | 76 | 83.6 | 17.3 | 6.49 | 17.3 | 21.6 | 15.3 | 16.3 | 24.2 |
| COc1cccc(/C=N/[N-]C(N)=O)c1[O-].[Cu+2].[OH3+].c1ccc(-c2ccccn2)nc1 | > 100 | > 100 | – | > 78.2 | 98.9 | 29.8 | 35.8 | > 100 | 74 | – | – | – | – | – | – | – |
| Cc1nc2ccccc2c(/C=C/c2ccc(Cl)cc2)c1C(=O)/C=C/c1ccc(Cl)cc1 | 3 | 3.13 | – | – | – | – | – | > 100 | – | 1.53 | 0.787 | – | – | – | 0.739 | – |
| COc1ccc2oc(=O)c(-c3csc(C)n3)cc2c1 | > 100 | > 100 | – | > 100 | > 100 | 41.2 | – | > 100 | > 100 | – | – | – | – | – | – | – |
| CC(C)C1N(C)c2ccc(Cl)cc2[C@H]2c3ccccc3CCN12 (stereo not given in full) | – | > 100 | – | > 100 | > 100 | > 100 | > 100 | 90.7 | > 100 | – | – | – | – | – | – | – |
| O=C(NC(=S)NC(=O)c1cc(O)c(O)c(O)c1)c1cc(O)c(O)c(O)c1 | 87.9 | 67.8 | – | – | 44.9 | > 100 | > 100 | 65.5 | 98.6 | – | – | – | – | – | – | – |
| CC(C)(C)OC(=O)NCCCCC(NC(=O)c1ccccc1)C(N)=O (stereo not given) | – | > 100 | > 100 | > 100 | > 100 | – | > 100 | > 100 | > 100 | – | – | – | – | – | – | – |
| COc1ccccc1C[C@@H]1OC2(C=CC(=O)C=C2)O[C@H]1Cc1ccccc1OC | – | 27.9 | > 50 | 13 | 17.7 | 20.1 | 49.9 | 16.7 | 17.5 | – | – | – | – | – | – | – |
| CC1C(c2ccc(Cl)cc2)c2cc3c(cc2OC1N1CCOCC1)OCO3 (stereo not given) | > 100 | > 100 | > 100 | > 100 | > 100 | – | – | > 100 | > 100 | – | – | – | – | – | – | – |
| O=C(Nc1ccccc1)c1cc(S(=O)(=O)N2CCNNC2=O)c(S)cc1Cl | > 100 | > 100 | 83.9 | > 100 | > 100 | > 100 | > 100 | – | > 100 | – | – | – | – | – | – | – |
| CCc1ccccc1NNc1cc(=O)[nH]c(=O)[nH]1 | 40.1 | – | 37.7 | 33.9 | 32.7 | 31.3 | 45.8 | 39.3 | 35.1 | – | – | – | – | – | – | – |
| CC(=O)N(O)c1ccc(-c2nc3ccccc3s2)cc1 | > 100 | > 100 | > 100 | – | > 100 | > 100 | > 100 | > 100 | > 100 | – | – | – | – | – | – | – |
| Cc1ccccc1NC(=O)Cc1csc2[n+]1C(=O)/C(=C/c1ccc([N+](=O)[O-])cc1)S2 | > 100 | > 100 | > 100 | > 100 | > 100 | > 100 | – | > 100 | > 100 | – | – | – | – | – | – | – |
| COc1cc2nc(-c3cccs3)[nH]c(=O)c2cc1OC | – | > 100 | > 100 | > 100 | > 100 | > 100 | > 100 | > 100 | > 100 | – | – | – | – | – | – | – |
| NC(Cc1ccc(S(=O)(=O)O)cc1)C(=O)NC(Cc1ccc(S(=O)(=O)O)cc1)C(=O)O (stereo not given) | > 100 | > 100 | > 100 | > 100 | > 100 | – | > 100 | > 100 | > 100 | – | – | – | – | – | – | – |
| Cc1nc2c(=S)n(C)ncc2[nH]1 | > 100 | > 100 | > 100 | > 100 | > 100 | – | > 100 | > 100 | > 100 | – | – | – | – | – | – | – |
| NNC(=O)c1cc(=O)[nH][nH]1 | – | > 100 | > 100 | > 100 | > 100 | > 100 | – | > 100 | > 100 | – | – | – | – | – | – | – |
| CC(=O)Oc1ccc(/C=C/C(=O)O[C@@H](C(=O)O)[C@@H](OC(=O)/C=C/c2ccc(OC(C)=O)c(OC(C)=O)c2)C(=O)O)cc1OC(C)=O | > 100 | > 100 | > 100 | > 100 | > 100 | > 100 | > 100 | – | > 100 | – | – | – | – | – | – | – |
| C[C@H](C/C=C/C(C)(C)O)[C@H]1CC[C@@]2(C)[C@@H]3CC[C@H]4C(C)(C)[C@@H](O)CC[C@@]45C[C@@]35CC[C@]12C | – | 83.1 | 49.7 | 34.7 | 18.9 | 26.5 | 40.8 | > 100 | 44.5 | – | – | – | – | – | – | – |
| COc1cc(N(Cc2ccc3oc(=O)c(-c4ccccc4)nc3c2)Cc2ccc3oc(=O)c(-c4ccccc4)nc3c2)cc(OC)c1OC | > 10 | > 10 | > 10 | > 10 | > 10 | > 10 | – | > 10 | > 10 | – | – | – | – | – | – | – |
| CN(C)c1cc[n+](-c2nc(/N=C(\[O-])C(F)(F)F)nc3c2ncn3C2CC(O)C(CO)O2)cc1 (stereo not given) | > 100 | > 100 | > 100 | > 100 | > 100 | – | > 100 | > 100 | > 100 | – | – | – | – | – | – | – |
